Measured values reported in PubChem BioAssay AID1259411 (Chemical Carcinogenesis Research Information System (CCRIS), 2018).
Active and inactive are the calls of the source. No rule for the calls is given here.

System: rodent carcinogenicity bioassays, tumor incidence
Experiment: CCRIS carcinogenicity studies
Summary of the method: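 NCI-built, expert-reviewed records of carcinogenicity and related test outcomes (mutagenicity, tumor promotion/inhibition) compiled from published and report sources, historical span 1985-2011, not updated.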

Measured: carcinogen call

ClCOCCl
active: Species: HUMAN, Route: INHALATION, Tumor Site: Type of Lesion: LUNG: OAT CELL CARCINOMA active; positive | Species: MOUSE, Strain/Sex: ICR/FEMALE, Route: DERMAL, Tumor Site: Type of Lesion: INTEGUMENTARY SYSTEM (SKIN): PAPILLOMA, SQUAMOUS CELL CARCINOMA active; positive | Species: MOUSE, Strain/Sex: ICR/MALE,FEMALE, Route: SUBCUTANEOUS, Dose: 12.5 µL/KG IN PEANUT OIL ONCE, Tumor Site: Type of Lesion: LUNG: ADENOMA active; positive | Species: MOUSE, Strain/Sex: ICR/MALE, Route: INHALATION, Dose: 0, 10, 100 PPB 6 HR/D, 5 D/WK FOR 6 MO (STUDY DURATION: 24 MO), Dose: 0, 10, 100 PPB 6 HR/D, 5 D/WK FOR 6 MO (STUDY DURATION: 24 MO), Tumor Site: Type of Lesion: LUNG: ADENOMA OR ADENOCARCINOMA active; positive | Species: MOUSE, Strain/Sex: STRAIN-A, Route: INHALATION, Dose: 0.005 MG/L 6 HR/D, 5 D/WK FOR A TOTAL OF 82 D OVER 27 WK, Tumor Site: Type of Lesion: LUNG: ADENOMA active; positive | Species: RAT, Strain/Sex: SPRAGUE-DAWLEY/FEMALE, Route: SUBCUTANEOUS, Dose: 3 MG IN 0.1 ML NUJOL 1/WK FOR 100 D THEN 1 MG 1/WK OR 3/MO FOR 200 D, Tumor Site: Type of Lesion: INJECTION SITE: FIBROSARCOMA active; positive | Species: RAT, Strain/Sex: SPRAGUE-DAWLEY/MALE, Route: INHALATION, Dose: 0, 1, 10, 100 PPB 6 HR/D, 5 D/WK FOR 6 MO (STUDY DURATION: 19-28 MO), Dose: 0, 1, 10, 100 PPB 6 HR/D, 5 D/WK FOR 6 MO (STUDY DURATION: 19-28 MO), Tumor Site: Type of Lesion: NASAL CAVITY: ESTHESIONEUROEPITHELIOMA active; positive | Species: RAT, Strain/Sex: SPRAGUE-DAWLEY, Route: INHALATION, Dose: 0.5 MG/M3 FOR 101 EXPOSURES, Tumor Site: Type of Lesion: LUNG: SQUAMOUS CELL CARCINOMA, NASAL CAVITY: ESTHESIONEUROEPITHELIOMA active; positive

CNC(=S)N(C)C
inactive: Species: MOUSE, Strain/Sex: B6C3F1/FEMALE, Route: ORAL, Dose: 0, 500, 1000 PPM IN DIET, Dose: 0, 500, 1000 PPM IN DIET inactive; negative | Species: MOUSE, Strain/Sex: B6C3F1/MALE, Route: ORAL, Dose: 0, 500, 1000 PPM IN DIET, Dose: 0, 500, 1000 PPM IN DIET inactive; negative | Species: RAT, Strain/Sex: F344/MALE, Route: ORAL, Dose: 0, 250, 500 PPM IN DIET, Dose: 0, 250, 500 PPM IN DIET inactive; negative
active: Species: RAT, Strain/Sex: F344/FEMALE, Route: ORAL, Dose: 0, 250, 500 PPM IN DIET, Dose: 0, 250, 500 PPM IN DIET, Tumor Site: Type of Lesion: THYROID GLAND: FOLLICULAR CELL CARCINOMA OR ADENOMA active; positive

O=C1OC2(c3ccccc31)c1cc(I)c(O)c(I)c1Oc1c2cc(I)c(O)c1I
inactive: Species: MOUSE, Strain/Sex: CD-1/FEMALE, Route: ORAL, Dose: 0, 0.3, 1.0, 3.0% IN DIET FOR 24 MO (STUDY DURATION: 24 MO), Dose: 0, 0.3, 1.0, 3.0% IN DIET FOR 24 MO (STUDY DURATION: 24 MO) inactive; negative | Species: MOUSE, Strain/Sex: CD-1/MALE, Route: ORAL, Dose: 0, 0.3, 1.0, 3.0% IN DIET FOR 24 MO (STUDY DURATION: 24 MO), Dose: 0, 0.3, 1.0, 3.0% IN DIET FOR 24 MO (STUDY DURATION: 24 MO) inactive; negative | Species: MOUSE, Strain/Sex: ICR/FEMALE, Route: DERMAL, Dose: 0, 1 MG IN 0.1 ML DISTILLED WATER 2/WK FOR A MEAN TOTAL DOSE OF 133 MG (STUDY DURATION: 18 MO) inactive; negative | Species: MOUSE, Strain/Sex: ICR/MALE, Route: DERMAL, Dose: 0, 1 MG IN 0.1 ML DISTILLED WATER 2/WK FOR A MEAN TOTAL DOSE OF 133 MG (STUDY DURATION: 18 MO) inactive; negative | Species: RAT, Strain/Sex: CD-1/FEMALE, Route: ORAL, Dose: 0, 0.1, 0.5, 1% IN DIET FOR 30 MO BEGINNING IN UTERO WITH PARENTS GIVEN THE SAME DIETARY DOSES (STUDY DURATION: 30 MO), Dose: 0, 0.1, 0.5, 1% IN DIET FOR 30 MO BEGINNING IN UTERO WITH PARENTS GIVEN THE SAME DIETARY DOSES (STUDY DURATION: 30 MO) inactive; negative | Species: RAT, Strain/Sex: CD-1/FEMALE, Route: ORAL, Dose: 0, 4% IN DIET FOR 30 MO BEGINNING IN UTERO WITH PARENTS GIVEN THE SAME DIETARY DOSES (STUDY DURATION: 30 MO) inactive; negative | Species: RAT, Strain/Sex: CD-1/MALE, Route: ORAL, Dose: 0, 0.1, 0.5, 1% IN DIET FOR 30 MO BEGINNING IN UTERO WITH PARENTS GIVEN THE SAME DIETARY DOSES (STUDY DURATION: 30 MO), Dose: 0, 0.1, 0.5, 1% IN DIET FOR 30 MO BEGINNING IN UTERO WITH PARENTS GIVEN THE SAME DIETARY DOSES (STUDY DURATION: 30 MO) inactive; negative
active: Species: RAT, Strain/Sex: CD-1/MALE, Route: ORAL, Dose: 0, 4% IN DIET FOR 30 MO BEGINNING IN UTERO WITH PARENTS GIVEN THE SAME DIETARY DOSES (STUDY DURATION: 30 MO), Tumor Site: Type of Lesion: THYROID: ADENOMA active; positive

C1CC2OC2CC1C1CO1 (stereo not given)
active: Species: MOUSE, Route: DERMAL, Tumor Site: Type of Lesion: INTEGUMENTARY SYSTEM (SKIN) active; positive | Species: MOUSE, Strain/Sex: B6C3F1/FEMALE, Route: DERMAL, Dose: 0, 2.5, 5, 10 MG/MOUSE IN ACETONE 5 D/WK FOR 103 WK, HIGH DOSE FEMALE MICE 85 WK (STUDY DURATION: 105 WK), Dose: 0, 2.5, 5, 10 MG/MOUSE IN ACETONE 5 D/WK FOR 103 WK, HIGH DOSE FEMALE MICE 85 WK (STUDY DURATION: 105 WK), Tumor Site: Type of Lesion: LUNG: ALVEOLAR/BRONCHIOLAR ADENOMA OR CARCINOMA, OVARY: GRANULOSA CELL TUMOR, GRANULOSA CELL TUMOR OR MALIGNANT GRANULOS active; positive | Species: MOUSE, Strain/Sex: B6C3F1/MALE, Route: DERMAL, Dose: 0, 2.5, 5, 10 MG/MOUSE IN ACETONE 5 D/WK FOR 103 WK (STUDY DURATION: 105 WK), Dose: 0, 2.5, 5, 10 MG/MOUSE IN ACETONE 5 D/WK FOR 103 WK (STUDY DURATION: 105 WK), Tumor Site: Type of Lesion: SKIN (APPLICATION SITE): BASOSQUAMOUS TUMOR MALIGNANT, BASOSQUAMOUS TUMOR MALIGNANT OR BASAL CELL CARCINOMA, SQUAMOUS CE active; positive | Species: RAT, Strain/Sex: F344/FEMALE, Route: DERMAL, Dose: 0, 15, 30 MG/RAT IN ACETONE 5 D/WK FOR 105 WK (STUDY DURATION: 106 WK), Dose: 0, 15, 30 MG/RAT IN ACETONE 5 D/WK FOR 105 WK (STUDY DURATION: 106 WK), Tumor Site: Type of Lesion: SKIN (APPLICATION SITE): BASAL CELL CARCINOMA, SEBACEOUS GLAND ADENOMA OR BASAL CELL CARCINOMA, SQUAMOUS CELL CARCINOMA active; positive | Species: RAT, Strain/Sex: F344/MALE, Route: DERMAL, Dose: 0, 15, 30 MG/RAT IN ACETONE 5 D/WK FOR 105 WK (STUDY DURATION: 106 WK), Dose: 0, 15, 30 MG/RAT IN ACETONE 5 D/WK FOR 105 WK (STUDY DURATION: 106 WK), Tumor Site: Type of Lesion: SKIN (APPLICATION SITE): BASAL CELL ADENOMA, BASAL CELL CARCINOMA, BASAL CELL ADENOMA OR SEBACEOUS GLAND ADENOMA, SQUAMO active; positive

C=CC(=O)OCC(CC)CCCC (stereo not given)
inactive: Species: MOUSE, Strain/Sex: NMRI/MALE, Route: DERMAL, Dose: 0, 21.5, 43, 85% (W/W) IN ACETONE 3/WK FOR 2 YR (STUDY DURATION: 2 YR), Dose: 0, 21.5, 43, 85% (W/W) IN ACETONE 3/WK FOR 2 YR (STUDY DURATION: 2 YR) inactive; negative

O=C(O)CCCC/C=C(\c1ccccc1)c1cccnc1
inactive: Species: MOUSE, Strain/Sex: CD-1/FEMALE, Route: ORAL, Dose: 0, 10, 30, 100, 300 MG/KG/D IN DIET FOR 2 YR (STUDY DURATION: 2 YR), Dose: 0, 10, 30, 100, 300 MG/KG/D IN DIET FOR 2 YR (STUDY DURATION: 2 YR) inactive; negative | Species: MOUSE, Strain/Sex: CD-1/MALE, Route: ORAL, Dose: 0, 10, 30, 100, 300 MG/KG/D IN DIET FOR 2 YR (STUDY DURATION: 2 YR), Dose: 0, 10, 30, 100, 300 MG/KG/D IN DIET FOR 2 YR (STUDY DURATION: 2 YR) inactive; negative | Species: RAT, Strain/Sex: STRAIN-CD/FEMALE, Route: ORAL, Dose: 0, 10, 30, 100 MG/KG/D IN DIET FOR 2 YR (STUDY DURATION: 2 YR), Dose: 0, 10, 30, 100 MG/KG/D IN DIET FOR 2 YR (STUDY DURATION: 2 YR) inactive; negative | Species: RAT, Strain/Sex: STRAIN-CD/MALE, Route: ORAL, Dose: 0, 10, 30, 100 MG/KG/D IN DIET FOR 2 YR (STUDY DURATION: 2 YR), Dose: 0, 10, 30, 100 MG/KG/D IN DIET FOR 2 YR (STUDY DURATION: 2 YR) inactive; negative
